Measurements from publication PMC5349910, “Discovery of BPR1K871, a quinazoline based, multi-kinase inhibitor for the treatment of AML and solid tumors: Rational design, synthesis, in vitro and in vivo evaluation” (Oncotarget, 2016).

Columns and labels:
[1] = target: T1, FLT3 (Homo sapiens, UniProt P36888); parameters: method as in PMID 20550212, PMID 23172777, PMID 24665000; details: previously reported leads 1, 2, 3; cited from earlier work
T1 construct: FLT3 kinase catalytic domain (residues Tyr567-Ser993); made in house; host or cells: Sf9 insect cells (baculovirus, pBac-PAK8-GST-FLT3-KD)
T1 sequence (P36888 567-993): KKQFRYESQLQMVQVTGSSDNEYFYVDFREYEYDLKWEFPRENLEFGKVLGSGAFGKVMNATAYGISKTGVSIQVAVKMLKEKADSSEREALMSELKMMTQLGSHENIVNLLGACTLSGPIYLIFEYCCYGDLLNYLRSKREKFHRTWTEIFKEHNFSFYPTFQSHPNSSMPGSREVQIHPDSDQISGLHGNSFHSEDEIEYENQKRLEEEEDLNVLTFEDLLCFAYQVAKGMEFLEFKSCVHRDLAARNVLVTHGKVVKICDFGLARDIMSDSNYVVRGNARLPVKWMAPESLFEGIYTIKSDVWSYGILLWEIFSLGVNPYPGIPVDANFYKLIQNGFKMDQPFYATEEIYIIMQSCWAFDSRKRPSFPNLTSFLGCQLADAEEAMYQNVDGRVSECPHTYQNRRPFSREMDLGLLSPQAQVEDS

[2] = target: T2, AURKA (Homo sapiens, UniProt O14965); parameters: method as in PMID 20550212, PMID 23172777, PMID 24665000; details: previously reported leads 1, 2, 3; cited from earlier work
T2 construct: recombinant GST-AURKA (residues Ser123-Ser401) containing the kinase domain; GST (N); made in house; host or cells: Sf9 insect cells
T2 sequence (O14965 123-401): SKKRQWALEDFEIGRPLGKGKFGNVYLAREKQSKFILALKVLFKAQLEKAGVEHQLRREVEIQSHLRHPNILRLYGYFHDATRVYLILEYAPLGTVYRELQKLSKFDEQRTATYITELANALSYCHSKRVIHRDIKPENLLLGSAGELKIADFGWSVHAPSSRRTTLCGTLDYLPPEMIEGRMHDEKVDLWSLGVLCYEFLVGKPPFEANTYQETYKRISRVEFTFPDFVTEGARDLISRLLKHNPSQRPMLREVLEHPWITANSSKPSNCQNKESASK

[3] = test system: MOLM-13 cells; assay: MTS cell viability assay, MOLM-13; type: cell-based, human; details: Homo sapiens, MOLM-13, 72 h, MTS, 72 h; AML-FLT3-ITD (heterozygous); supplement values ± SEM; read-out: MOLM-13 EC50
Description: (§1) The MTS cell viability assay was conducted as previously described. The MOLM-13 human leukemia cell line was obtained from the German Resource Centre for Biological Material (DSMZ, Braunschweig, Germany); the MV4-11 cell line was purchased from the American Type Culture Collection (ATCC, Manassas, VA, USA). […] To determine cell viability after drug treatment, assay for MOLM-13 and MV4-11 was performed by seeding 10000 cells per well in a 96-well culture plate. […] After 16 h, cells were then treated with vehicle or various concentrations of compound in medium for 72 h. Viable cells were quantified using the MTS method (Promega, Madison, WI, USA) according to the manufacturer's recommended protocol. Results were determined by measuring the absorbance at 490 nm using a plate reader (Victor2; PerkinElmer, Shelton, CT, USA).

[4] = test system: CL-97 cells; assay: Anti-proliferative activity, CL-97; type: cell-based, human; details: CL97; Human Lung Cancer; supplement values ± SEM; read-out: CL-97 EC50
[5] = test system: H2228 cells; assay: Anti-proliferative activity, H2228; type: cell-based; details: Homo sapiens, NCI-H2228; NSCLC-ALK; supplement values ± SEM; read-out: H2228 EC50
[6] = test system: Mia-PaCa2 cells; assay: Anti-proliferative activity, Mia-PaCa2; type: cell-based, human; details: Homo sapiens, MIA PaCa-2, Human Pancreatic Cancer; supplement values ± SEM
[7] = test system: HCC827 cells; assay: Anti-proliferative activity, HCC827; type: cell-based; details: Homo sapiens, HCC827; NSCLC-EGFR L858R; supplement values ± SEM; read-out: HCC827 EC50
[8] = test system: MV4-11 cells; assay: MTS cell viability assay, MV4-11; type: cell-based, human; details: Homo sapiens, MV4-11, 72 h, MTS, 72 h; AML-FLT3-ITD (homozygous); supplement values ± SEM; read-out: MV4-11 EC50
Description: as §1

[9] = test system: HCT-116 cells; assay: Anti-proliferative activity, HCT-116; type: cell-based, human; details: HCT-116; Human Colon Cancer; supplement values ± SEM; read-out: HCT-116 EC50
[10] = test system: H1975 cells; assay: Anti-proliferative activity, H1975; type: cell-based; details: Homo sapiens, NCI-H1975; NSCLC-EGFR LR/TM; supplement values ± SEM; read-out: H1975 EC50
[11] = test system: K562 cells; assay: Anti-proliferative activity, K562; type: cell-based; details: Homo sapiens, K562; CML-Bcr-Abl FLT3-negative; supplement values ± SEM; read-out: K562 EC50
[12] = test system: U937 cells; assay: Anti-proliferative activity, U937; type: cell-based; details: Homo sapiens, U-937; AML-FLT3-negative; supplement values ± SEM; read-out: U937 EC50
[13] = test system: RS4-11 cells; assay: Anti-proliferative activity, RS4-11; type: cell-based; details: Homo sapiens, RS4-11; ALL-wt-FLT3 (homozygous); supplement values ± SEM; read-out: RS4-11 EC50
[14] = test system: Colo 205 cells; assay: Anti-proliferative activity, Colo 205; type: cell-based; details: Homo sapiens, COLO 205, Human Colon Cancer

EC50 [3] [nM] | EC50 [5] [nM] | EC50 [6] [nM] | EC50 [7] [nM] | EC50 [8] [nM] | EC50 [9] [nM] | EC50 [10] [nM] | EC50 [11] [nM] | EC50 [12] [nM] | EC50 [13] [nM] | EC50 [14] [nM] | SMILES | IC50 [1] [nM] | IC50 [2] [nM] | EC50 [4] [nM]
 |  |  |  |  |  |  |  |  |  |  | O=C(Nc1cccc(Cl)c1)Nc1ncc(CCNc2ncnc3oc(-c4ccccc4)c(-c4ccccc4)c23)s1 [Compound 3] | 322 | 43 | 
38 | 8780 | 16400 | 6180 | 82 | 8070 | 8850 | > 20000 | > 18000 | 9200 |  | Cc1ccc(F)c(NC(=O)Nc2ccc(-c3cccc4[nH]nc(N)c34)cc2)c1 [Linifanib] |  |  | > 20000
69 |  |  |  | 71 | 97 |  |  |  |  | 86 | Cc1cc(Nc2cc(N3CCN(C)CC3)nc(Sc3ccc(NC(=O)C4CC4)cc3)n2)[nH]n1 [VX-680, reference compound] |  |  | 
